Results from the CheMixHub viscosity set.
Where “and” joins values, the source holds several entries; their conditions need not be identical. Identical values can stand only once.

Key:
[1] = xn = mol fraction of the nth substance listed

Cc1ccccc1O
viscosity
Conditions | 293.15 K | 298.15 K | 308.15 K | 313.15 K | 318.15 K | 323.15 K
101 kPa | 9.56 mPa·s | 7.607 mPa·s and 7.608 mPa·s | – | 4.312 mPa·s and 4.238 mPa·s and 4.1 mPa·s | 3.506 mPa·s and 2.215 mPa·s | –
101.3 kPa | – | – | – | 4.243 mPa·s | – | 3.02 mPa·s
101.33 kPa | – | 7.493 mPa·s | 4.853 mPa·s | – | 3.359 mPa·s | 2.83 mPa·s

ClCC(Cl)Cl
viscosity [mPa·s]
Conditions | 298.15 K | 308.15 K | 313.15 K
100 kPa | – | 0.953 | 0.887
101 kPa | 1.061 | – | –

O=C([O-])CC(O)(CC(=O)[O-])C(=O)[O-].[NH3+]CCO.[NH3+]CCO.[NH3+]CCO
101 kPa
Conditions | viscosity [mPa·s]
293.15 K | 183.9
303.15 K | 113.8
313.15 K | 67.2
323.15 K | 37.38

O=C1OCCO1
viscosity
Conditions | 298.15 K | 313.15 K | 323.15 K
100 kPa | – | 1.81 mPa·s and 1.917 mPa·s | 1.56 mPa·s
101.3 kPa | 2.263 mPa·s | 1.879 mPa·s | –
101.33 kPa | – | 1.93 mPa·s | –

CC(C)(C)c1ccccc1 + c1ccccc1
[1], 303.15 K, 101.3 kPa
Conditions | viscosity [mPa·s]
x2 = 0.0424 | 0.9763
x2 = 0.1376 | 0.9194
x2 = 0.2605 | 0.8507
x2 = 0.4018 | 0.7791
x2 = 0.5266 | 0.725
x2 = 0.682 | 0.6637
x2 = 0.7952 | 0.6265
x2 = 0.865 | 0.6036
x2 = 0.9376 | 0.5792

CC(C)CO + c1ccccc1
[1], 303 K, 101.3 kPa
Conditions | viscosity [mPa·s]
x2 = 0.1012 | 2.322
x2 = 0.2055 | 1.88
x2 = 0.3024 | 1.551
x2 = 0.4124 | 1.26
x2 = 0.511 | 1.057
x2 = 0.6016 | 0.9052
x2 = 0.706 | 0.7704
x2 = 0.8037 | 0.6783
x2 = 0.8987 | 0.6131

CCOC(=O)CC + c1ccccc1
viscosity [mPa·s], [1], 101.3 kPa
Conditions | 308.15 K | 318.15 K
x1 = 0.0521 | 0.53 | 0.47
x1 = 0.0984 | 0.525 | 0.47
x1 = 0.2018 | 0.513 | 0.469
x1 = 0.3029 | 0.503 | 0.468
x1 = 0.4009 | 0.495 | 0.465
x1 = 0.4991 | 0.487 | 0.462
x1 = 0.5982 | 0.481 | 0.459
x1 = 0.7114 | 0.475 | 0.453
x1 = 0.8042 | 0.472 | 0.448
x1 = 0.8989 | 0.469 | 0.443
x1 = 0.92 | 0.468 | 0.441

Cc1ccccc1O + c1ccccc1
viscosity [mPa·s], [1]
Conditions | 298.15 K | 308.15 K | 318.15 K | 323.15 K
101 kPa, x1 = 0.1176 | – | 0.641 | – | –
101 kPa, x1 = 0.2203 | – | 0.7752 | – | –
101 kPa, x1 = 0.3357 | – | 0.9753 | – | –
101 kPa, x1 = 0.4352 | – | 1.164 | – | –
101 kPa, x1 = 0.5693 | – | 1.535 | – | –
101 kPa, x1 = 0.6728 | – | 2.109 | – | –
101 kPa, x1 = 0.7757 | – | 2.775 | – | –
101 kPa, x1 = 0.896 | – | 3.774 | – | –
101.33 kPa, x1 = 0.1 | 0.704 | 0.609 | 0.531 | 0.497
101.33 kPa, x1 = 0.2 | 0.849 | 0.727 | 0.623 | 0.578
101.33 kPa, x1 = 0.4 | 1.319 | 1.073 | 0.894 | 0.815
101.33 kPa, x1 = 0.5 | 1.661 | 1.334 | 1.084 | 0.981
101.33 kPa, x1 = 0.6 | 2.148 | 1.668 | 1.331 | 1.186
101.33 kPa, x1 = 0.8 | 3.874 | 2.766 | 2.067 | 1.807

Cc1ccccc1O + c1ccncc1
viscosity [mPa·s], [1], 101 kPa
Conditions | x1 = 0.09109 | x1 = 0.1923 | x1 = 0.2702 | x1 = 0.3823 | x1 = 0.4812 | x1 = 0.5958 | x1 = 0.7186 | x1 = 0.8145 | x1 = 0.8918
293.15 K | 1.176 | 1.556 | 1.983 | 2.962 | 4.455 | 6.845 | 9.26 | 10.04 | 10.01
303.15 K | 1.022 | 1.35 | 1.724 | 2.56 | 3.625 | 4.935 | 6.23 | 6.565 | 6.45
313.15 K | 0.886 | 1.148 | 1.436 | 2.045 | 2.75 | 3.575 | 4.29 | 4.415 | 4.325
